What was measured:
Assay type in all cases: in vivo
[1] = test system: green foxtail (Setaria viridis (L.) P. Beauv.); experiment: Test Example 2: herbicidal effect by soil application to upland field; details: soil surface spray, upland field soil, 1,000 g active ingredient per hectare, 21st day after application
Protocol: (§1) [table] Test Example 2 Test on Herbicidal Effect by Soil Application to Upland field In a 80 cm2 plastic pot, field soil was filled. Seeds of barnyardgrass (Echinochloa crus-galli (L.) P. Beauv. var. crus-galli), green foxtail (Setaria viridis (L.) P. Beauv.), velvetleaf (Abutilon theophrasti medicus), and slender amaranth (Amaranthus viridis L.) were sown and covered with soils. The wettable powder prepared according to Formulation Example 1 was diluted in water and a 1,000 liter equivalent amount per 1 hectare so that the active ingredient becomes 1,000 g per 1 hectare was uniformly sprayed on a soil surface using a small sprayer. Then, on the 21st day after the application to the plants grew in a greenhouse, the herbicidal effect was examined in accordance with a standard shown in Table 34.

[2] = test system: slender amaranth (Amaranthus viridis L.); experiment: as above; details: soil surface spray, upland field soil, 1,000 g active ingredient per hectare, 21st day after application
Protocol: as §1

[3] = test system: velvetleaf (Abutilon theophrasti medicus); experiment: as above; details: soil surface spray, upland field soil, 1,000 g active ingredient per hectare, 21st day after application
Protocol: as §1

[4] = test system: barnyardgrass (Echinochloa crus-galli (L.) P. Beauv. var. crus-galli); experiment: as above; details: soil surface spray, upland field soil, 1,000 g active ingredient per hectare, 21st day after application
Protocol: as §1

[5] = test system: heartshape false pickerelweed (Monochoria vaginalis (Burm.f.) C.Presl); experiment: Test Example 1: herbicidal effect by soil application to paddy field; details: paddy field soil application; active ingredient 1,000 g per 1 hectare; wettable powder added dropwise to water surface the day after sowing; examined on the 21st day after application
Summary of the method: (§2)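 Under greenhouse conditions, seeds sown on puddled paddy soil in 100 cm2 pots under 3 cm of standing water received the test compound; injury was assessed with a standard scoring scheme three weeks (day 21) after treatment.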

[6] = test system: early watergrass (Echinochloa oryzicola Vasing); experiment: as above; details: paddy field soil application; active ingredient 1,000 g per 1 hectare; wettable powder added dropwise to water surface the day after sowing; examined on the 21st day after application
Summary of the method: as §2

[7] = test system: Japanese bulrush (Scirpus juncoides Roxb.); experiment: as above; details: paddy field soil application; active ingredient 1,000 g per 1 hectare; wettable powder added dropwise to water surface the day after sowing; examined on the 21st day after application
Summary of the method: as §2

SMILES | herbicidal effect (index), Green Foxtail [1] | herbicidal effect (index), Slender Amaranth [2] | herbicidal effect (index), Velvetleaf [3] | herbicidal effect (index), Barnyardgrass [4] | herbicidal effect, Monochoria vaginalis (Burm. f.) C. Presl [5] | herbicidal effect, Echinochloa oryzicola Vasing [6] | herbicidal effect, Scirpus juncoides Roxb. [7]
CCCS(=O)(=O)Oc1c(C(=O)c2ccc(C(F)(F)F)n(CC3CCCO3)c2=O)cnn1CC (stereo not shown) [IV-207] | 5 (90% or more of herbicidal effect and crop phytotoxicity) | 5 (90% or more of herbicidal effect and crop phytotoxicity) | 5 (90% or more of herbicidal effect and crop phytotoxicity) | 5 (90% or more of herbicidal effect and crop phytotoxicity) | 5 (90% or more of herbicidal effect and crop phytotoxicity) | 5 (90% or more of herbicidal effect and crop phytotoxicity) | 5 (90% or more of herbicidal effect and crop phytotoxicity)
CCCS(=O)(=O)Oc1c(C(=O)c2ccc(C(F)(F)F)n(-c3ccc([N+](=O)[O-])cc3)c2=O)cnn1C [IV-68] | 4 (70 to less than 90% of herbicidal effect and crop phytotoxicity) | 5 (90% or more of herbicidal effect and crop phytotoxicity) | 5 (90% or more of herbicidal effect and crop phytotoxicity) | 4 (70 to less than 90% of herbicidal effect and crop phytotoxicity) | 5 (90% or more of herbicidal effect and crop phytotoxicity) | 4 (70 to less than 90% of herbicidal effect and crop phytotoxicity) | 4 (70 to less than 90% of herbicidal effect and crop phytotoxicity)
CCCS(=O)(=O)Oc1c(C(=O)c2ccc(C(F)(F)F)n(-c3ccc(F)c(F)c3)c2=O)c(C)nn1C [IV-88] | 5 (90% or more of herbicidal effect and crop phytotoxicity) | 5 (90% or more of herbicidal effect and crop phytotoxicity) | 5 (90% or more of herbicidal effect and crop phytotoxicity) | 5 (90% or more of herbicidal effect and crop phytotoxicity) | 5 (90% or more of herbicidal effect and crop phytotoxicity) | 5 (90% or more of herbicidal effect and crop phytotoxicity) | 4 (70 to less than 90% of herbicidal effect and crop phytotoxicity)
CCCn1c(C(F)(F)F)c(C)cc(C(=O)c2cnn(C)c2O)c1=O [IV-241] | 3 (50 to less than 70% of herbicidal effect and crop phytotoxicity) | 5 (90% or more of herbicidal effect and crop phytotoxicity) | 5 (90% or more of herbicidal effect and crop phytotoxicity) | 4 (70 to less than 90% of herbicidal effect and crop phytotoxicity) | 5 (90% or more of herbicidal effect and crop phytotoxicity) | 5 (90% or more of herbicidal effect and crop phytotoxicity) | 5 (90% or more of herbicidal effect and crop phytotoxicity)
O=C1CCCC(O)=C1C(=O)c1ccc(C(F)(F)F)n(Cc2cc(Cl)nc(Cl)c2)c1=O [I-124] | 5 (90% or more of herbicidal effect and crop phytotoxicity) | 5 (90% or more of herbicidal effect and crop phytotoxicity) | 5 (90% or more of herbicidal effect and crop phytotoxicity) | 5 (90% or more of herbicidal effect and crop phytotoxicity) | 5 (90% or more of herbicidal effect and crop phytotoxicity) | 5 (90% or more of herbicidal effect and crop phytotoxicity) | 5 (90% or more of herbicidal effect and crop phytotoxicity)
CCCS(=O)(=O)Oc1c(C(=O)c2ccc(C(F)(F)F)n(-c3ccc(F)c(F)c3)c2=O)cnn1C [IV-87] | 5 (90% or more of herbicidal effect and crop phytotoxicity) | 5 (90% or more of herbicidal effect and crop phytotoxicity) | 5 (90% or more of herbicidal effect and crop phytotoxicity) | 5 (90% or more of herbicidal effect and crop phytotoxicity) | 5 (90% or more of herbicidal effect and crop phytotoxicity) | 5 (90% or more of herbicidal effect and crop phytotoxicity) | 5 (90% or more of herbicidal effect and crop phytotoxicity)
O=C1CCCC(O)=C1C(=O)c1ccc(C(F)(F)F)n(NCCCCl)c1=O [I-167] | 5 (90% or more of herbicidal effect and crop phytotoxicity) | 5 (90% or more of herbicidal effect and crop phytotoxicity) | 5 (90% or more of herbicidal effect and crop phytotoxicity) | 5 (90% or more of herbicidal effect and crop phytotoxicity) | 5 (90% or more of herbicidal effect and crop phytotoxicity) | 5 (90% or more of herbicidal effect and crop phytotoxicity) | 5 (90% or more of herbicidal effect and crop phytotoxicity)
CCn1c(C(F)(F)Cl)ccc(C(=O)C2=C(O)CCCC2=O)c1=O [I-226] | 3 (50 to less than 70% of herbicidal effect and crop phytotoxicity) | 5 (90% or more of herbicidal effect and crop phytotoxicity) | 5 (90% or more of herbicidal effect and crop phytotoxicity) | 4 (70 to less than 90% of herbicidal effect and crop phytotoxicity) | 5 (90% or more of herbicidal effect and crop phytotoxicity) | 5 (90% or more of herbicidal effect and crop phytotoxicity) | 5 (90% or more of herbicidal effect and crop phytotoxicity)
CCCS(=O)(=O)Oc1c(C(=O)c2ccc(C(F)(F)F)n(-c3cc(F)cc(F)c3)c2=O)c(C)nn1C [IV-82] | 4 (70 to less than 90% of herbicidal effect and crop phytotoxicity) | 4 (70 to less than 90% of herbicidal effect and crop phytotoxicity) | 5 (90% or more of herbicidal effect and crop phytotoxicity) | 5 (90% or more of herbicidal effect and crop phytotoxicity) | 5 (90% or more of herbicidal effect and crop phytotoxicity) | 5 (90% or more of herbicidal effect and crop phytotoxicity) | 3 (50 to less than 70% of herbicidal effect and crop phytotoxicity)
CC(=O)Oc1c(C(=O)c2ccc(C(F)(F)F)n(-c3cc([N+](=O)[O-])ccc3F)c2=O)cnn1C [IV-89] | 4 (70 to less than 90% of herbicidal effect and crop phytotoxicity) | 4 (70 to less than 90% of herbicidal effect and crop phytotoxicity) | 5 (90% or more of herbicidal effect and crop phytotoxicity) | 5 (90% or more of herbicidal effect and crop phytotoxicity) | 5 (90% or more of herbicidal effect and crop phytotoxicity) | 4 (70 to less than 90% of herbicidal effect and crop phytotoxicity) | 4 (70 to less than 90% of herbicidal effect and crop phytotoxicity)

— patent US8076487B2, “Pyridone derivative and herbicide” (Kumiai Chemical Industry Co., Ltd., priority 2006, dated 2011)
